# Test results as given in article PMC10576769 (Nature Communications, 2023).
# How the values were obtained:
# [1] = target: broad-range phospholipase C from Listeria monocytogenes (LmPC-PLC), wild type, mature form (Listeria monocytogenes) (UniProt P33378)
# [2] = target: T1, LmPC-PLC (Listeria monocytogenes serovar 1/2a, UniProt P33378); test: biochemical; format: biochemical; conditions: for relative activity of LmPC-PLC WT on 4-NPPC (compared to uninhibited activity): Fig. 4g; for Activity of LmPC-PLC towards 4-NPPC (slope): 50 μM ZnSO4
# T1 sequence (P33378 52-289 limits assumed): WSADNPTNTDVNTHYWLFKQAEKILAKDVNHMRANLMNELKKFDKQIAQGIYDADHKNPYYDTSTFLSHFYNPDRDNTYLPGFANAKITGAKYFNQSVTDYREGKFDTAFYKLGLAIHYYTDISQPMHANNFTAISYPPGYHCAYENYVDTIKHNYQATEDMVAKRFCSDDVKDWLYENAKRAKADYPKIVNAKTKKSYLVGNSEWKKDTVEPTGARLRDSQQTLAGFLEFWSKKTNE
# [3] = target: T1, LmPC-PLC; format: biochemical; conditions: 100% POPC MLVs […], 20 mM MES pH 6.5, 150 mM NaCl, 50 μM ZnSO4, 37 °C, replicate 1
# Sequence of broad-range phospholipase C from Listeria monocytogenes (LmPC-PLC), wild type, mature form (P33378 52-289): as the sequence (P33378 52-289 limits assumed) above
compound,measurement,setting,value
"broad-range phospholipase C from Listeria monocytogenes (LmPC-PLC), wild type, mature form (from UniProt P33378 52-289) (enzyme)",stoichiometry N,[1],2
CC[C@H](C)[C@H](NC(=O)[C@H](CC(=O)O)NC(=O)[C@H](Cc1c[nH]cn1)NC(=O)[C@@H]1CCCN1C(=O)[C@H](C)NC(=O)[C@H](C)NC(=O)[C@@H]1CCCN1C(=O)[C@@H](NC(=O)[C@H](CCC(N)=O)NC(=O)[C@H](CC(C)C)NC(=O)[C@H](Cc1ccc(O)cc1)NC(=O)[C@H](CCC(=O)O)NC(=O)[C@H](CC(=O)O)NC(=O)[C@H](CS)NC(=O)[C@H](CS)NC(=O)[C@H](C)NC(=O)[C@@H](N)CC(N)=O)[C@@H](C)O)C(=O)N[C@@H](CC(=O)O)C(=O)N[C@@H](CO)C(=O)N[C@@H](CCCCN)C(=O)N[C@@H](CC(C)C)C(=O)N1CCC[C@H]1C(=O)N[C@@H](Cc1c[nH]cn1)C(=O)N[C@@H](CCCCN)C(=O)N[C@@H](CC(C)C)C(=O)N[C@@H](CO)C(=O)O [NS-26],"relative activity on 4-NPPC (compared to uninhibited activity), Lm","[2]; Fig. 4e, peptide 100uM, PC-PLC 500 nM, 4-NPPC 1 mM, 20 mM MES pH 6.5, 150 mM NaCl, 500 μM ZnSO4, 37 °C, replicate 1",0.3179
same,relative activity of LmPC-PLC WT on 4-NPPC (compared to uninhibited activity),"[2]; as E100, replicate 2",0.2706
same,relative activity of LmPC-PLC WT on 4-NPPC (compared to uninhibited activity),"[2]; as E100, replicate 3",0.2574
same,relative activity of LmPC-PLC WT on 4-NPPC (compared to uninhibited activity),"[2]; peptide 100 uM, enzyme 500 nM, 4-NPPC 1 mM, 20 mM MES pH 6.5, 150 mM NaCl, 500 μM ZnSO4, 37 °C, replicate 1",0.2356
same,IC50,"[2]; IC50, 95% CI, as IC50, 95% CI from the fit",4.9 to 33.9 µM
same,IC50,"[2]; IC50, LmPC-PLC 500 nM, 4-NPPC 1 mM, 20 mM MES pH 6.5, 150 mM NaCl, 500 μM ZnSO4, 37 °C, four-parameter logistic fit, n = 3",9.4 µM
same,"relative activity on POPC (compared to uninhibited activity), Lm","[3]; Fig. 4f, peptide 10 uM, PC-PLC 50 nM",0.3051
same,relative activity of LmPC-PLC WT on POPC (compared to uninhibited activity),"[3]; Fig. 4h, peptide 100 uM as printed in the head (legend and method: 10 μM), enzyme 50 nM",0.2837
[Zn] [Zn],"Activity of LmPC-PLC, 4-NPPC as substrate (slope)","[2]; Zn 500 uM, 0 mM TCEP, LmPC-PLC 500 nM, 4-NPPC 1 mM, replicate 1",0.0003721
same,"Activity of LmPC-PLC, 4-NPPC as substrate (slope)","[2]; Zn 500 uM, 0 mM TCEP, LmPC-PLC 500 nM, 4-NPPC 1 mM, replicate 2",0.0004616
same,"Activity of LmPC-PLC, 4-NPPC as substrate (slope)","[2]; Zn 500 uM, 0 mM TCEP, LmPC-PLC 500 nM, 4-NPPC 1 mM, replicate 3",0.0006377
same,"Activity of LmPC-PLC, 4-NPPC as substrate (slope)","[2]; Zn 5000 uM, 0 mM TCEP, LmPC-PLC 500 nM, 4-NPPC 1 mM, replicate 1",0.0007074
same,"Activity of LmPC-PLC, 4-NPPC as substrate (slope)","[2]; Zn 5000 uM, 0 mM TCEP, LmPC-PLC 500 nM, 4-NPPC 1 mM, replicate 2",0.000691
same,"Activity of LmPC-PLC, 4-NPPC as substrate (slope)","[2]; Zn 5000 uM, 0 mM TCEP, LmPC-PLC 500 nM, 4-NPPC 1 mM, replicate 3",0.0004664
"c1ccc(CN(CCN(Cc2ccccn2)Cc2ccccn2)Cc2ccccn2)nc1 [TPEN, N,N,N′,N′-tetrakis(2-pyridinylmethyl)−1,2-ethanediamine]",inhibition of LmPC-PLC compared with O-phe,"[2]; LmPC-PLC 500 nM, 4-NPPC 1 mM, pH 6.5, 50 μM ZnSO4, Supplementary Fig. 10",even stronger inhibition
same,Activity of LmPC-PLC towards 4-NPPC (slope),"[2]; inhibitor 2 uM, LmPC-PLC 500 nM, 4-NPPC 1 mM, 20 mM MES pH 6.5, 150 mM NaCl, replicate 1 of N=3",0.0004788 abs/min
same,Activity of LmPC-PLC towards 4-NPPC (slope),"[2]; inhibitor 2 uM, LmPC-PLC 500 nM, 4-NPPC 1 mM, 20 mM MES pH 6.5, 150 mM NaCl, replicate 2 of N=3",0.0004923 abs/min
same,Activity of LmPC-PLC towards 4-NPPC (slope),"[2]; inhibitor 2 uM, LmPC-PLC 500 nM, 4-NPPC 1 mM, 20 mM MES pH 6.5, 150 mM NaCl, replicate 3 of N=3",0.0004163 abs/min
same,Activity of LmPC-PLC towards 4-NPPC (slope),"[2]; inhibitor 4 uM, LmPC-PLC 500 nM, 4-NPPC 1 mM, 20 mM MES pH 6.5, 150 mM NaCl, replicate 1 of N=3",0.0004484 abs/min
same,Activity of LmPC-PLC towards 4-NPPC (slope),"[2]; inhibitor 4 uM, LmPC-PLC 500 nM, 4-NPPC 1 mM, 20 mM MES pH 6.5, 150 mM NaCl, replicate 2 of N=3",0.0005039 abs/min
same,Activity of LmPC-PLC towards 4-NPPC (slope),"[2]; inhibitor 4 uM, LmPC-PLC 500 nM, 4-NPPC 1 mM, 20 mM MES pH 6.5, 150 mM NaCl, replicate 3 of N=3",0.0004264 abs/min
same,Activity of LmPC-PLC towards 4-NPPC (slope),"[2]; inhibitor 8 uM, LmPC-PLC 500 nM, 4-NPPC 1 mM, 20 mM MES pH 6.5, 150 mM NaCl, replicate 1 of N=3",0.0004334 abs/min
same,Activity of LmPC-PLC towards 4-NPPC (slope),"[2]; inhibitor 8 uM, LmPC-PLC 500 nM, 4-NPPC 1 mM, 20 mM MES pH 6.5, 150 mM NaCl, replicate 2 of N=3",0.0004696 abs/min
same,Activity of LmPC-PLC towards 4-NPPC (slope),"[2]; inhibitor 8 uM, LmPC-PLC 500 nM, 4-NPPC 1 mM, 20 mM MES pH 6.5, 150 mM NaCl, replicate 3 of N=3",0.0004182 abs/min
same,Activity of LmPC-PLC towards 4-NPPC (slope),"[2]; inhibitor 16 uM, LmPC-PLC 500 nM, 4-NPPC 1 mM, 20 mM MES pH 6.5, 150 mM NaCl, replicate 1 of N=3",0.0003725 abs/min
same,Activity of LmPC-PLC towards 4-NPPC (slope),"[2]; inhibitor 16 uM, LmPC-PLC 500 nM, 4-NPPC 1 mM, 20 mM MES pH 6.5, 150 mM NaCl, replicate 2 of N=3",0.0004155 abs/min
same,Activity of LmPC-PLC towards 4-NPPC (slope),"[2]; inhibitor 16 uM, LmPC-PLC 500 nM, 4-NPPC 1 mM, 20 mM MES pH 6.5, 150 mM NaCl, replicate 3 of N=3",0.0003534 abs/min
same,Activity of LmPC-PLC towards 4-NPPC (slope),"[2]; inhibitor 31 uM, LmPC-PLC 500 nM, 4-NPPC 1 mM, 20 mM MES pH 6.5, 150 mM NaCl, replicate 1 of N=3",0.0002559 abs/min
same,Activity of LmPC-PLC towards 4-NPPC (slope),"[2]; inhibitor 31 uM, LmPC-PLC 500 nM, 4-NPPC 1 mM, 20 mM MES pH 6.5, 150 mM NaCl, replicate 2 of N=3",0.0003429 abs/min
same,Activity of LmPC-PLC towards 4-NPPC (slope),"[2]; inhibitor 31 uM, LmPC-PLC 500 nM, 4-NPPC 1 mM, 20 mM MES pH 6.5, 150 mM NaCl, replicate 3 of N=3",0.0003443 abs/min
O=C(O)CCP(CCC(=O)O)CCC(=O)O [TCEP],"Activity of LmPC-PLC, 4-NPPC as substrate (slope)","[2]; 1 mM TCEP, Zn 500 uM, LmPC-PLC 500 nM, 4-NPPC 1 mM, replicate 1",6.624e-5
same,"Activity of LmPC-PLC, 4-NPPC as substrate (slope)","[2]; 1 mM TCEP, Zn 500 uM, LmPC-PLC 500 nM, 4-NPPC 1 mM, replicate 2",6.51e-5
same,"Activity of LmPC-PLC, 4-NPPC as substrate (slope)","[2]; 1 mM TCEP, Zn 500 uM, LmPC-PLC 500 nM, 4-NPPC 1 mM, replicate 3",6.545e-5
same,"Activity of LmPC-PLC, 4-NPPC as substrate (slope)","[2]; 1 mM TCEP, Zn 5000 uM, LmPC-PLC 500 nM, 4-NPPC 1 mM, replicate 1",0.0001618
same,"Activity of LmPC-PLC, 4-NPPC as substrate (slope)","[2]; 1 mM TCEP, Zn 5000 uM, LmPC-PLC 500 nM, 4-NPPC 1 mM, replicate 2",0.0001898
same,"Activity of LmPC-PLC, 4-NPPC as substrate (slope)","[2]; 1 mM TCEP, Zn 5000 uM, LmPC-PLC 500 nM, 4-NPPC 1 mM, replicate 3",0.0002041
same,"Activity of LmPC-PLC, 4-NPPC as substrate (slope)","[2]; 5 mM TCEP, Zn 500 uM, LmPC-PLC 500 nM, 4-NPPC 1 mM, replicate 1, value 0 = no slope could be determined",0.00000
same,"Activity of LmPC-PLC, 4-NPPC as substrate (slope)","[2]; 5 mM TCEP, Zn 500 uM, LmPC-PLC 500 nM, 4-NPPC 1 mM, replicate 2, value 0 = no slope could be determined",0.00000
same,"Activity of LmPC-PLC, 4-NPPC as substrate (slope)","[2]; 5 mM TCEP, Zn 500 uM, LmPC-PLC 500 nM, 4-NPPC 1 mM, replicate 3, value 0 = no slope could be determined",0.00000
same,"Activity of LmPC-PLC, 4-NPPC as substrate (slope)","[2]; 5 mM TCEP, Zn 5000 uM, LmPC-PLC 500 nM, 4-NPPC 1 mM, replicate 1, value 0 = no slope could be determined",0.00000
same,"Activity of LmPC-PLC, 4-NPPC as substrate (slope)","[2]; 5 mM TCEP, Zn 5000 uM, LmPC-PLC 500 nM, 4-NPPC 1 mM, replicate 2, value 0 = no slope could be determined",0.00000
same,"Activity of LmPC-PLC, 4-NPPC as substrate (slope)","[2]; 5 mM TCEP, Zn 5000 uM, LmPC-PLC 500 nM, 4-NPPC 1 mM, replicate 3, value 0 = no slope could be determined",0.00000
same,"Activity of LmPC-PLC, 4-NPPC as substrate (slope)","[2]; 20 mM TCEP, Zn 500 uM, LmPC-PLC 500 nM, 4-NPPC 1 mM, replicate 1, value 0 = no slope could be determined",0.00000
same,"Activity of LmPC-PLC, 4-NPPC as substrate (slope)","[2]; 20 mM TCEP, Zn 500 uM, LmPC-PLC 500 nM, 4-NPPC 1 mM, replicate 2, value 0 = no slope could be determined",0.00000
same,"Activity of LmPC-PLC, 4-NPPC as substrate (slope)","[2]; 20 mM TCEP, Zn 500 uM, LmPC-PLC 500 nM, 4-NPPC 1 mM, replicate 3, value 0 = no slope could be determined",0.00000
same,"Activity of LmPC-PLC, 4-NPPC as substrate (slope)","[2]; 20 mM TCEP, Zn 5000 uM, LmPC-PLC 500 nM, 4-NPPC 1 mM, replicate 1, value 0 = no slope could be determined",0.00000
same,"Activity of LmPC-PLC, 4-NPPC as substrate (slope)","[2]; 20 mM TCEP, Zn 5000 uM, LmPC-PLC 500 nM, 4-NPPC 1 mM, replicate 2, value 0 = no slope could be determined",0.00000
same,"Activity of LmPC-PLC, 4-NPPC as substrate (slope)","[2]; 20 mM TCEP, Zn 5000 uM, LmPC-PLC 500 nM, 4-NPPC 1 mM, replicate 3, value 0 = no slope could be determined",0.00000
